Source: US7951829B2, “Benzimidazole modulators of VR1” (Janssen Pharmaceutica NV, priority 2006, dated 2011)

Target: T1, hVR1 (Homo sapiens, UniProt Q8NER1)
T1 construct: expressed in transfected cells; host or cells: HEK293
Assay: Human VR1 (hVR1) Functional Assay (FLIPR intracellular calcium, capsaicin challenge)
Format: cell-based
Details: capsaicin 0.030 μM, HEK293 cells expressing hVR1; for inhibition at 1 µM: test concentration 1 μM

T1 sequence (Q8NER1 whole entry): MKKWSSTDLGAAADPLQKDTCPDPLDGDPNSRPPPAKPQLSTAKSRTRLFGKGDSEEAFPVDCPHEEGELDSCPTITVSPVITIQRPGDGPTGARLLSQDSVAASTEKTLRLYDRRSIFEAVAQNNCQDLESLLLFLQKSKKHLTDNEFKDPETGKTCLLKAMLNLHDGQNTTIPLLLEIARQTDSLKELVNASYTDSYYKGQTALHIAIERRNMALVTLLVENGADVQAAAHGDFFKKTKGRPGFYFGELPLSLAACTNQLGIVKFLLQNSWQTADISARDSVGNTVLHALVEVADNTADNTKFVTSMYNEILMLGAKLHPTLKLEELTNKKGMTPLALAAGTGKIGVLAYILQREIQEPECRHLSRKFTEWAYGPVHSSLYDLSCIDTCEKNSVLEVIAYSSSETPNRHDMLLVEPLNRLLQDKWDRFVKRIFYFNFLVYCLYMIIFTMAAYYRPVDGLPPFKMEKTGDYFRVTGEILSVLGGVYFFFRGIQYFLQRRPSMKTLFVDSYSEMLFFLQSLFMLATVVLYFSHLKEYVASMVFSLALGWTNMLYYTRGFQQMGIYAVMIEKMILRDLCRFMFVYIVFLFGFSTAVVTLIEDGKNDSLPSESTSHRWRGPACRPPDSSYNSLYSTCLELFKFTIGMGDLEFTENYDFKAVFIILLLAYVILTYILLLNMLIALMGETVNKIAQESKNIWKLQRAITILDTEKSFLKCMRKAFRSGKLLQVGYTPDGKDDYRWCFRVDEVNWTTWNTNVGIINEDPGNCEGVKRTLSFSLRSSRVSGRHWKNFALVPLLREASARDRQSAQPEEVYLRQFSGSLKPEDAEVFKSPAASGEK

IC50 [nM] | inhibition at 1 µM [%] | SMILES
24 | 98 | NS(=O)(=O)c1ccccc1-c1ccc2[nH]c(/C=C/c3cccc(F)c3F)nc2c1 [Cpd 359, (E)-2-{2-[2-(2,3-difluoro-phenyl)-vinyl]-1H-benzimidazol-5-yl}-benzenesulfonamide]
28 | 101 | CNS(=O)(=O)c1ccccc1-c1ccc2[nH]c(/C=C/c3ccc(C#N)cc3)nc2c1 [Cpd 451, (E)-2-{2-[2-(4-cyano-phenyl)-vinyl]-1H-benzimidazol-5-yl}-N-methyl-benzenesulfonamide]
10 | 96 | NS(=O)(=O)c1ccccc1-c1ccc2[nH]c(/C=C/c3cc(F)cc(C(F)(F)F)c3)nc2c1 [Cpd 436, (E)-2-{2-[2-(3-fluoro-5-trifluoromethyl-phenyl)-vinyl]-1H-benzimidazol-5-yl}-benzenesulfonamide]
24 | 98 | CNS(=O)(=O)c1ccccc1-c1ccc2[nH]c(/C=C/c3ccc(S(=O)(=O)C(F)(F)F)cc3)nc2c1 [Cpd 342, (E)-N-methyl-2-{2-[2-(4-trifluoromethanesulfonyl-phenyl)-vinyl]-1H-benzimidazol-5-yl}-benzenesulfonamide]
 | 4 | FC(F)(F)Oc1ccccc1-c1ccc2[nH]c(/C=C/c3ccc(C(F)(F)F)cc3)nc2c1 [Cpd 488, (E)-5-(2-trifluoromethoxy-phenyl)-2-[2-(4-trifluoromethyl-phenyl)-vinyl]-1H-benzimidazole]
13 | 100 | CC(C)(O)c1ccccc1-c1ccc2[nH]c(/C=C/c3ccccc3C(F)(F)F)nc2c1 [Cpd 482, (E)-2-(2-{2-[2-(2-trifluoromethyl-phenyl)-vinyl]-1H-benzimidazol-5-yl}-phenyl)-propan-2-ol]
22 | 95 | NS(=O)(=O)c1ccccc1-c1ccc2[nH]c([C@H]3C[C@@H]3c3ccc(C(F)(F)F)cc3)nc2c1 [Cpd 504, 2-{2-[(1S,2S)-2-(4-trifluoromethyl-phenyl)-cyclopropyl]-1H-benzimidazol-5-yl}-benzenesulfonamide]
13 | 99 | NS(=O)(=O)c1ccccc1-c1ccc2[nH]c(CCc3cc(F)cc(F)c3)nc2c1 [Cpd 396, 2-{2-[2-(3,5-difluoro-phenyl)-ethyl]-1H-benzimidazol-5-yl}-benzenesulfonamide]
19 | 98 | NS(=O)(=O)c1ccccc1-c1ccc2[nH]c(C#Cc3ccc(C(F)(F)F)cc3)nc2c1 [Cpd 250, 2-[2-(4-trifluoromethyl-phenylethynyl)-1H-benzimidazol-5-yl]-benzenesulfonamide]
 | 14 | CC(C)(C)c1ccc(/C=C/c2nc3cc(-c4ccccc4NS(C)(=O)=O)c(C(F)(F)F)cc3[nH]2)cc1 [Cpd 55, (E)-N-(2-{2-[2-(4-tert-butyl-phenyl)-vinyl]-6-trifluoromethyl-1H-benzimidazol-5-yl}-phenyl)-methanesulfonamide]
16 | 100 | NS(=O)(=O)c1ccccc1-c1ccc2[nH]c(C#Cc3cccc(C(F)(F)F)c3)nc2c1 [Cpd 295, 2-[2-(3-trifluoromethyl-phenylethynyl)-1H-benzimidazol-5-yl]-benzenesulfonamide]
18 | 98 | NS(=O)(=O)c1ccccc1-c1ccc2[nH]c(/C=C/c3cc(F)c(F)cc3F)nc2c1 [Cpd 371, (E)-2-{2-[2-(2,4,5-trifluoro-phenyl)-vinyl]-1H-benzimidazol-5-yl}-benzenesulfonamide]
 | 21 | CN(C)Cc1ccccc1-c1ccc2[nH]c(/C=C/c3ccc(C(F)(F)F)cc3)nc2c1 [Cpd 483, (E)-dimethyl-(2-{2-[2-(4-trifluoromethyl-phenyl)-vinyl]-1H-benzimidazol-5-yl}-benzyl)-amine]
170 | 97 | CS(=O)(=O)Nc1ccccc1-c1ccc2[nH]c(/C=C/c3ccc(Br)cc3)nc2c1 [Cpd 406, (E)-N-(2-{2-[2-(4-bromo-phenyl)-vinyl]-1H-benzimidazol-5-yl}-phenyl)-methanesulfonamide]
71 | 98 | CCOC(=O)c1ccccc1-c1ccc2[nH]c(/C=C/c3ccc(C(F)(F)F)cc3)nc2c1 [Cpd 466, (E)-2-{2-[2-(4-trifluoromethyl-phenyl)-vinyl]-1H-benzimidazol-5-yl}-benzoic acid ethyl ester]
890 | 58 | CC(=O)Nc1ccccc1-c1ccc2[nH]c(/C=C/c3ccc(S(=O)(=O)C(F)(F)F)cc3)nc2c1 [Cpd 43, (E)-N-(2-{2-[2-(4-trifluoromethanesulfonyl-phenyl)-vinyl]-1H-benzimidazol-5-yl}-phenyl)-acetamide]
243 | 82 | CNS(=O)(=O)c1ccccc1-c1ccc2[nH]c(/C=C/c3ccccc3C(F)(F)F)nc2c1 [Cpd 343, (E)-N-methyl-2-{2-[2-(2-trifluoromethyl-phenyl)-vinyl]-1H-benzimidazol-5-yl}-benzenesulfonamide]
 | 23 | CS(=O)(=O)c1cc(Cl)ccc1CCc1nc2cc(-c3ccccc3S(N)(=O)=O)ccc2[nH]1 [Cpd 389, 2-{2-[2-(4-chloro-2-methanesulfonyl-phenyl)-ethyl]-1H-benzimidazol-5-yl}-benzenesulfonamide]

IC50 [nM] | inhibition at 1 µM [%] | SMILES
 | 6 | NC(=O)c1ccccc1-c1ccc2[nH]c(/C=C/c3ccc(F)c(F)c3)nc2c1 [Cpd 26, (E)-2-{2-[2-(3,4-difluoro-phenyl)-vinyl]-1H-benzimidazol-5-yl}-benzamide]
8 | 100 | NS(=O)(=O)c1ccccc1-c1ccc2[nH]c(/C=C/c3ccc(F)cc3F)nc2c1 [Cpd 357, (E)-2-{2-[2-(2,4-difluoro-phenyl)-vinyl]-1H-benzimidazol-5-yl}-benzenesulfonamide]
7 | 96 | NS(=O)(=O)c1ccccc1-c1ccc2[nH]c(CCc3ccc(Cl)c(C(F)(F)F)c3)nc2c1 [Cpd 390, 2-{2-[2-(4-chloro-3-trifluoromethyl-phenyl)-ethyl]-1H-benzimidazol-5-yl}-benzenesulfonamide]
11 | 96 | NS(=O)(=O)c1ccccc1-c1ccc2[nH]c(CCc3ccc(F)c(C(F)(F)F)c3)nc2c1 [Cpd 383, 2-{2-[2-(4-fluoro-3-trifluoromethyl-phenyl)-ethyl]-1H-benzimidazol-5-yl}-benzenesulfonamide]
24 | 97 | NS(=O)(=O)c1ccccc1-c1ccc2[nH]c(/C=C/c3ccc(Cl)cc3Cl)nc2c1 [Cpd 437, (E)-2-{2-[2-(2,4-dichloro-phenyl)-vinyl]-1H-benzimidazol-5-yl}-benzenesulfonamide]
240 | 89 | CNS(=O)(=O)c1ccccc1-c1ccc2[nH]c(/C=C/c3c(F)cccc3Cl)nc2c1 [Cpd 336, (E)-2-{2-[2-(2-chloro-6-fluoro-phenyl)-vinyl]-1H-benzimidazol-5-yl}-N-methyl-benzenesulfonamide]
 | 73 | CC(C)(C)NS(=O)(=O)c1ccccc1-c1ccc2[nH]c(/C=C/c3ccc(C(F)(F)F)cc3)nc2c1 [Cpd 309, (E)-N-tert-butyl-2-{2-[2-(4-trifluoromethyl-phenyl)-vinyl]-1H-benzimidazol-5-yl}-benzenesulfonamide]
8 | 97 | CC(C)(O)c1ccccc1-c1ccc2[nH]c(/C=C/c3ccccc3)nc2c1 [Cpd 468, (E)-2-[2-(2-styryl-1H-benzimidazol-5-yl)-phenyl]-propan-2-ol]
49 | 98 | CNS(=O)(=O)c1ccccc1-c1ccc2[nH]c(/C=C/c3cccc(C(F)(F)F)c3F)nc2c1 [Cpd 332, (E)-2-{2-[2-(2-fluoro-3-trifluoromethyl-phenyl)-vinyl]-1H-benzimidazol-5-yl}-N-methyl-benzenesulfonamide]
 | 7 | Oc1cccc(-c2cc3nc(/C=C/c4ccc(C(F)(F)F)cc4)[nH]c3cc2F)c1 [Cpd 60, (E)-3-{6-fluoro-2-[2-(4-trifluoromethyl-phenyl)-vinyl]-1H-benzimidazol-5-yl}-phenol]
40 | 100 | CC(C)(O)c1ccccc1-c1ccc2[nH]c(/C=C/c3ccc(S(C)(=O)=O)cc3)nc2c1 [Cpd 84, (E)-2-(2-{2-[2-(4-methanesulfonyl-phenyl)-vinyl]-1H-benzimidazol-5-yl}-phenyl)-propan-2-ol]
 | 18 | CC(=O)Nc1ccccc1-c1ccc2[nH]c(/C=C/c3ccc(SC(F)(F)F)cc3)nc2c1 [Cpd 37, (E)-N-(2-{2-[2-(4-trifluoromethylsulfanyl-phenyl)-vinyl]-1H-benzimidazol-5-yl}-phenyl)-acetamide]
 | 43 | CS(=O)(=O)Nc1ccccc1-c1ccc2[nH]c(/C=C/c3ccc(F)c(Br)c3)nc2c1 [Cpd 409, (E)-N-(2-{2-[2-(3-bromo-4-fluoro-phenyl)-vinyl]-1H-benzimidazol-5-yl}-phenyl)-methanesulfonamide]
12 | 100 | NS(=O)(=O)c1ccccc1-c1ccc2[nH]c(/C=C/c3ccc(Cl)c(C(F)(F)F)c3)nc2c1 [Cpd 378, (E)-2-{2-[2-(4-chloro-3-trifluoromethyl-phenyl)-vinyl]-1H-benzimidazol-5-yl}-benzenesulfonamide]
59 | 99 | CNS(=O)(=O)c1ccccc1-c1ccc2[nH]c(/C=C/c3ccc(F)cc3F)nc2c1 [Cpd 349, (E)-2-{2-[2-(2,4-difluoro-phenyl)-vinyl]-1H-benzimidazol-5-yl}-N-methyl-benzenesulfonamide]
11 | 100 | CNS(=O)(=O)c1ccccc1-c1ccc2[nH]c(/C=C/c3ccc(F)cc3)nc2c1 [Cpd 315, (E)-2-{2-[2-(4-fluoro-phenyl)-vinyl]-1H-benzimidazol-5-yl}-N-methyl-benzenesulfonamide]
270 | 89 | NC(=O)c1ccccc1-c1ccc2[nH]c(/C=C/c3ccc(SC(F)(F)F)cc3)nc2c1 [Cpd 38, (E)-2-{2-[2-(4-trifluoromethylsulfanyl-phenyl)-vinyl]-1H-benzimidazol-5-yl}-benzamide]
